ChEMBL document CHEMBL5303573, “Mapping human microbiome drug metabolism by gut bacteria and their genes” (Nature, 2019)

Tests used:
[1] = The drug is tested on Bacteroides uniformis strain: ATCC8492 for biotransformation. The drug concentrations were measured before and after a 12-h incubation by liquid-chromatography-coupled mass spectrometry (LC–MS); conditions: 2 µM
[2] = The drug is tested on Eubacterium ventriosum strain: ATCC27560 for biotransformation. The drug concentrations were measured before and after a 12-h incubation by liquid-chromatography-coupled mass spectrometry (LC–MS); format: ADME; parameters: dose 2 uM, timepoint 0 vs 12 hours; conditions: 2 µM
[3] = The drug is tested on Clostridium sporogenes strain: ATCC15579 for biotransformation. The drug concentrations were measured before and after a 12-h incubation by liquid-chromatography-coupled mass spectrometry (LC–MS); conditions: 2 µM
[4] = The drug is tested on Bifidobacterium breve strain: DSM20213 for biotransformation. The drug concentrations were measured before and after a 12-h incubation by liquid-chromatography-coupled mass spectrometry (LC–MS); conditions: 2 µM
[5] = roseburia intestinalis, 12 h, 2 µM
Description: The drug is tested on Roseburia intestinalis strain: L1-82 for biotransformation. The drug concentrations were measured before and after a 12-h incubation by liquid-chromatography-coupled mass spectrometry (LC–MS)

[6] = The drug is tested on Escherichia coli strain: BW25113 for biotransformation. The drug concentrations were measured before and after a 12-h incubation by liquid-chromatography-coupled mass spectrometry (LC–MS); conditions: 2 µM
[7] = The drug is tested on Clostridium sp. strain: fecal isolate for biotransformation. The drug concentrations were measured before and after a 12-h incubation by liquid-chromatography-coupled mass spectrometry (LC–MS); conditions: 2 µM
[8] = bacteroides fragilis, 12 h, 2 µM
Description: The drug is tested on Bacteroides fragilis strain: 3397 (T10) for biotransformation. The drug concentrations were measured before and after a 12-h incubation by liquid-chromatography-coupled mass spectrometry (LC–MS)

[9] = segatella copri, 12 h, 2 µM
Description: The drug is tested on Prevotella copri strain: DSM18205 for biotransformation. The drug concentrations were measured before and after a 12-h incubation by liquid-chromatography-coupled mass spectrometry (LC–MS)

[10] = The drug is tested on Enterococcus faecalis strain: V583 for biotransformation. The drug concentrations were measured before and after a 12-h incubation by liquid-chromatography-coupled mass spectrometry (LC–MS); conditions: 2 µM
[11] = limosilactobacillus reuteri cf48-3a, 12 h, 2 µM
Description: The drug is tested on Lactobacillus reuteri CF48-3A strain: BEI HM-102 for biotransformation. The drug concentrations were measured before and after a 12-h incubation by liquid-chromatography-coupled mass spectrometry (LC–MS)

[12] = akkermansia muciniphila, 12 h, 2 µM
Description: The drug is tested on Akkermansia muciniphila strain: ATCC BAA-835 for biotransformation. The drug concentrations were measured before and after a 12-h incubation by liquid-chromatography-coupled mass spectrometry (LC–MS)

[13] = The drug is tested on Bacteroides ovatus strain: ATCC8483 for biotransformation. The drug concentrations were measured before and after a 12-h incubation by liquid-chromatography-coupled mass spectrometry (LC–MS); conditions: 2 µM
[14] = bifidobacterium adolescentis, 12 h, 2 µM
Description: The drug is tested on Bifidobacterium adolescentis strain: ATCC 15703 for biotransformation. The drug concentrations were measured before and after a 12-h incubation by liquid-chromatography-coupled mass spectrometry (LC–MS)

[15] = The drug is tested on Eubacterium hallii strain: DSM3353 for biotransformation. The drug concentrations were measured before and after a 12-h incubation by liquid-chromatography-coupled mass spectrometry (LC–MS); conditions: anaerobutyricum hallii, 2 µM
[16] = The drug is tested on Blautia hansenii strain: DSM20583 for biotransformation. The drug concentrations were measured before and after a 12-h incubation by liquid-chromatography-coupled mass spectrometry (LC–MS); conditions: 2 µM
[17] = The drug is tested on Bacteroides coprophilus strain: DSM18228 for biotransformation. The drug concentrations were measured before and after a 12-h incubation by liquid-chromatography-coupled mass spectrometry (LC–MS); conditions: 2 µM
[18] = The drug is tested on Bacteroides fragilis strain: ATCC43859 for biotransformation. The drug concentrations were measured before and after a 12-h incubation by liquid-chromatography-coupled mass spectrometry (LC–MS); conditions: 2 µM
[19] = The drug is tested on Odoribacter splanchnicus strain: fecal isolate for biotransformation. The drug concentrations were measured before and after a 12-h incubation by liquid-chromatography-coupled mass spectrometry (LC–MS); conditions: 2 µM
[20] = The drug is tested on Subdoligranulum variabile strain: DSM15176 for biotransformation. The drug concentrations were measured before and after a 12-h incubation by liquid-chromatography-coupled mass spectrometry (LC–MS); conditions: 2 µM

SMILES	Bacterial Biotransformation [1]	Bacterial Biotransformation [2]	Bacterial Biotransformation [3]	Bacterial Biotransformation [4]	Bacterial Biotransformation [5]	Bacterial Biotransformation [6]	Bacterial Biotransformation [7]	Bacterial Biotransformation [8]	Bacterial Biotransformation [9]	Bacterial Biotransformation [10]	Bacterial Biotransformation [11]	Bacterial Biotransformation [12]	Bacterial Biotransformation [13]	Bacterial Biotransformation [14]	Bacterial Biotransformation [15]	Bacterial Biotransformation [16]	Bacterial Biotransformation [17]	Bacterial Biotransformation [18]	Bacterial Biotransformation [19]	Bacterial Biotransformation [20]
CCC(C)n1ncn(-c2ccc(N3CCN(c4ccc(OCC5COC(Cn6cncn6)(c6ccc(Cl)cc6Cl)O5)cc4)CC3)cc2)c1=O (configuration not stated) [ITRACONAZOLE]	Compound NOT metabolized	Compound NOT metabolized	Compound NOT metabolized	Compound NOT metabolized	Compound NOT metabolized	Compound NOT metabolized	Compound metabolized	Compound NOT metabolized	Compound NOT metabolized	Compound NOT metabolized	Compound NOT metabolized	Compound NOT metabolized	Compound NOT metabolized	Compound NOT metabolized	Compound NOT metabolized	Compound metabolized	Compound NOT metabolized	Compound NOT metabolized	Compound NOT metabolized	
CC(C)(C)N.CCC[C@H](N[C@@H](C)C(=O)N1[C@H](C(=O)O)C[C@@H]2CCCC[C@@H]21)C(=O)OCC [PERINDOPRIL ERBUMINE]	Compound NOT metabolized	Compound NOT metabolized	Compound NOT metabolized	Compound NOT metabolized	Compound NOT metabolized	Compound NOT metabolized	Compound NOT metabolized	Compound NOT metabolized		Compound NOT metabolized	Compound NOT metabolized	Compound NOT metabolized	Compound NOT metabolized	Compound NOT metabolized	Compound NOT metabolized	Compound NOT metabolized	Compound NOT metabolized	Compound NOT metabolized	Compound NOT metabolized	
COc1ccc2c(c1)c(CC(=O)O)c(C)n2C(=O)c1ccc(Cl)cc1 [INDOMETHACIN]	Compound metabolized	Compound metabolized	Compound NOT metabolized	Compound NOT metabolized	Compound metabolized	Compound metabolized	Compound NOT metabolized	Compound metabolized	Compound metabolized	Compound NOT metabolized	Compound metabolized	Compound metabolized	Compound metabolized	Compound NOT metabolized	Compound NOT metabolized	Compound NOT metabolized	Compound metabolized	Compound metabolized	Compound metabolized	
Cc1cc2c(s1)Nc1ccccc1N=C2N1CCN(C)CC1 [OLANZAPINE]		Compound NOT metabolized	Compound NOT metabolized	Compound NOT metabolized	Compound NOT metabolized	Compound NOT metabolized		Compound metabolized	Compound NOT metabolized	Compound NOT metabolized	Compound NOT metabolized	Compound NOT metabolized		Compound NOT metabolized	Compound NOT metabolized		Compound metabolized		Compound metabolized	Compound NOT metabolized
CC(=O)OCC(=O)[C@@]1(OC(C)=O)[C@@H](C)C[C@H]2[C@@H]3C[C@H](F)C4=CC(=O)C=C[C@]4(C)[C@@]3(F)[C@@H](O)C[C@@]21C [DIFLORASONE DIACETATE]	Compound metabolized	Compound NOT metabolized	Compound metabolized	Compound NOT metabolized	Compound metabolized	Compound metabolized	Compound metabolized	Compound metabolized	Compound metabolized	Compound NOT metabolized	Compound NOT metabolized	Compound metabolized	Compound metabolized	Compound metabolized	Compound NOT metabolized	Compound metabolized	Compound NOT metabolized	Compound metabolized	Compound metabolized	
N#Cc1ccc2c(c1)N(CCCN1CCC(O)CC1)c1ccccc1S2 [PERICIAZINE]	Compound NOT metabolized	Compound NOT metabolized	Compound NOT metabolized	Compound NOT metabolized		Compound NOT metabolized		Compound metabolized	Compound NOT metabolized	Compound NOT metabolized		Compound NOT metabolized	Compound NOT metabolized	Compound NOT metabolized	Compound NOT metabolized					Compound NOT metabolized
CN1CCc2c(c3ccccc3n2Cc2ccccc2)C1.CN1CCc2c(c3ccccc3n2Cc2ccccc2)C1.O=S(=O)(O)c1cccc2c(S(=O)(=O)O)cccc12	Compound NOT metabolized	Compound NOT metabolized	Compound NOT metabolized	Compound NOT metabolized	Compound NOT metabolized	Compound NOT metabolized	Compound NOT metabolized	Compound NOT metabolized	Compound NOT metabolized	Compound NOT metabolized	Compound NOT metabolized	Compound NOT metabolized	Compound NOT metabolized	Compound NOT metabolized	Compound NOT metabolized	Compound NOT metabolized	Compound NOT metabolized	Compound NOT metabolized	Compound NOT metabolized	
